Among the targets are LYN (Homo sapiens, UniProt P07948); FGFR3 (Homo sapiens, UniProt P22607); FGR (Homo sapiens, UniProt P09769); PAK1 (Homo sapiens, UniProt Q13153); MAP4K3 (Homo sapiens, UniProt Q8IVH8); TRPM6 (Homo sapiens, UniProt Q9BX84); RET(M918T) (Homo sapiens, UniProt P07949, M918T); PDGFRA (Homo sapiens, UniProt P16234); LIMK2 (Homo sapiens, UniProt P53671); TESK1 (Homo sapiens, UniProt Q15569); LIMK1 (Homo sapiens, UniProt P53667); DDR1 (Homo sapiens, UniProt Q08345); CAMK2D (Homo sapiens, UniProt Q13557); FLT3(N841I) (Homo sapiens, UniProt P36888, N841I).

Holding throughout (experiment): biochemical
Parameters in all cases: DiscoverX KINOMEscan scanMAX competition binding panel, single concentration, percent of control; remaining binding: dose or concentration left out as unconfirmed
Holding throughout (conditions): KINOMEscan binding, percent of control; read-out: Table S4_SCANMAX REPORT - related to Fig. 1 / Percent Control

In a further test the target is T1, MST4 (Homo sapiens, UniProt Q9P289).
T1 construct: gene STK26

Test [1] addresses T2, JAK2(JH1domain-catalytic) (Homo sapiens, UniProt O60674).
T2 construct: JH1domain-catalytic

The target of a further test is T3, SGK (Homo sapiens, UniProt O00141).
T3 construct: gene SGK1

For another test, the target named is T4, JNK2 (Homo sapiens, UniProt P45984).
T4 construct: gene MAPK9

Another test has as its target T5, IKK-beta (Homo sapiens, UniProt O14920).
T5 construct: gene IKBKB

FGFR3, sequence (P22607 whole entry): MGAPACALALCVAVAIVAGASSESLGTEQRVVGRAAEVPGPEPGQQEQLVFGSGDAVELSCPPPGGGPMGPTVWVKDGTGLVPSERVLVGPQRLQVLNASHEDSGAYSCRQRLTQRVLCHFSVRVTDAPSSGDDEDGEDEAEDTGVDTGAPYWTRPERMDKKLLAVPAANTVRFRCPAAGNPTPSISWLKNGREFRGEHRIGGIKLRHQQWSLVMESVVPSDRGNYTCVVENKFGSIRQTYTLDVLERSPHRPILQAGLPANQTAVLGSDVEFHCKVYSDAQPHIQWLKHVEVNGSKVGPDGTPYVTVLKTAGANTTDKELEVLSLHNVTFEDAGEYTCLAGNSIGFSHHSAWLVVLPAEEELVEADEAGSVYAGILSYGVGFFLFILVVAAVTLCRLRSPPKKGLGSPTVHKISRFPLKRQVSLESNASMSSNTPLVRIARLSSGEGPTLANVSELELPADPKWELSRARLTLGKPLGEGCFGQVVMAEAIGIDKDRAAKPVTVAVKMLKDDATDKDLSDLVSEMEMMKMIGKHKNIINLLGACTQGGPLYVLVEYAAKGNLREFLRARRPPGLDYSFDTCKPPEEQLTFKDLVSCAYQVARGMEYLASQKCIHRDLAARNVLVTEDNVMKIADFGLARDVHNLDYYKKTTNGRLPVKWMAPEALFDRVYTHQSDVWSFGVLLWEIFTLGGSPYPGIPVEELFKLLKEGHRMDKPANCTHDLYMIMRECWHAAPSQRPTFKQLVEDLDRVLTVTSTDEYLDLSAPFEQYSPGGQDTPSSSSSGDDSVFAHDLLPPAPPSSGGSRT
PDGFRA, sequence (P16234 whole entry): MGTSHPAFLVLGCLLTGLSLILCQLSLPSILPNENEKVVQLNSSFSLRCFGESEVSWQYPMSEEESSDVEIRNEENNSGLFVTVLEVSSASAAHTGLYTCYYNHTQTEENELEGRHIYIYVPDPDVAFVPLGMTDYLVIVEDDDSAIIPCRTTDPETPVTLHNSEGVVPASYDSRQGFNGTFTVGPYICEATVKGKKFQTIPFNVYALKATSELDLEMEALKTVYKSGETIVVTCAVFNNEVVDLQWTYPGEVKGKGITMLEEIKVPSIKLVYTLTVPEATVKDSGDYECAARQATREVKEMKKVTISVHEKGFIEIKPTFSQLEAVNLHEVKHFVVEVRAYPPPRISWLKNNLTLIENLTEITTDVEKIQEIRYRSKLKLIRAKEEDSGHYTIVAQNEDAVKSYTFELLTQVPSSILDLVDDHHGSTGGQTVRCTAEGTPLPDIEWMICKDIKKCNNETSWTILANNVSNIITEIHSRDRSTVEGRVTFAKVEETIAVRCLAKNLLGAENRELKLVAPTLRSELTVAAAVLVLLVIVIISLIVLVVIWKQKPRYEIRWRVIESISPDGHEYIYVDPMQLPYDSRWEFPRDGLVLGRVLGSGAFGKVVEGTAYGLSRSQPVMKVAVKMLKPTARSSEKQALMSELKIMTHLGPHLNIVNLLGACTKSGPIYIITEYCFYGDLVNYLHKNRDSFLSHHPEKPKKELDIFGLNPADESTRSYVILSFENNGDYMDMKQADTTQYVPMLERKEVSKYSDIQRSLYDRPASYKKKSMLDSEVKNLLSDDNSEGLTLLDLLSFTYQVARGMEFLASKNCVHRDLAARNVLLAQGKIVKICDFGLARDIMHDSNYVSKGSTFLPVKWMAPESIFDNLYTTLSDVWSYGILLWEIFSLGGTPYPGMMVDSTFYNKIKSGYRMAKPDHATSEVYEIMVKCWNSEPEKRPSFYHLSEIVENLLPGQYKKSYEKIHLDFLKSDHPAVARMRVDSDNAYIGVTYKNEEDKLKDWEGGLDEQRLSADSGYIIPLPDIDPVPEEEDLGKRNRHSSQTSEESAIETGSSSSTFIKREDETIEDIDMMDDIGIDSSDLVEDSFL
FGR, sequence (P09769 whole entry): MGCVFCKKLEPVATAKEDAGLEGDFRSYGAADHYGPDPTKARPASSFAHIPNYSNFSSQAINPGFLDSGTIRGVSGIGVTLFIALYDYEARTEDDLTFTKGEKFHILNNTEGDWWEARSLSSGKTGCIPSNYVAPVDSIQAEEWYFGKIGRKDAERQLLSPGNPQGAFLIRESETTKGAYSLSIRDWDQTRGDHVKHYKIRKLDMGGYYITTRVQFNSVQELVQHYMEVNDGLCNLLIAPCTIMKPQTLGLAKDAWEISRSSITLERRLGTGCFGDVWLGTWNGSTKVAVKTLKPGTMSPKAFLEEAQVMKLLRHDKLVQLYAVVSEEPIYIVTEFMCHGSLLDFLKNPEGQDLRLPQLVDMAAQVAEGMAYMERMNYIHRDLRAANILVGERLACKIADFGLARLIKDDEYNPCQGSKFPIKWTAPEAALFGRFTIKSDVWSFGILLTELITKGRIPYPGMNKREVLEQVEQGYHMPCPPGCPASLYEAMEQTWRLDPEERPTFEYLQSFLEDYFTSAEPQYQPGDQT
TESK1, sequence (Q15569 whole entry): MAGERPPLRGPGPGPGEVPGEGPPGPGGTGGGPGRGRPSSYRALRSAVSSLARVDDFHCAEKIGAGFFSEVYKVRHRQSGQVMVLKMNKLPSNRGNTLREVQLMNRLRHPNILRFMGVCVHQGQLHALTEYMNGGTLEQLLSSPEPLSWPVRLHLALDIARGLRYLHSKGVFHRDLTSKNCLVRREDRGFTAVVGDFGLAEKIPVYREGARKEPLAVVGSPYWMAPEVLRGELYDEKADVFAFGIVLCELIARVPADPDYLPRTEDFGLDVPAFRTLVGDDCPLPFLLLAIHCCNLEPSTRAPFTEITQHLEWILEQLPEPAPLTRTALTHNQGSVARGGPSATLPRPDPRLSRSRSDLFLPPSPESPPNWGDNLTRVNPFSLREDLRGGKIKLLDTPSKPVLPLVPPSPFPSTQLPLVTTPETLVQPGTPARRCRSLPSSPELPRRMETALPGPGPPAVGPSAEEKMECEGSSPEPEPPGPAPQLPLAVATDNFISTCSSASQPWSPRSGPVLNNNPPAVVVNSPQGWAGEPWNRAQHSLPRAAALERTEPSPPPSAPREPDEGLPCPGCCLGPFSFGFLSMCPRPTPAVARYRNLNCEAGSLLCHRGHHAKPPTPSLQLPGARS
TRPM6, sequence (Q9BX84 whole entry): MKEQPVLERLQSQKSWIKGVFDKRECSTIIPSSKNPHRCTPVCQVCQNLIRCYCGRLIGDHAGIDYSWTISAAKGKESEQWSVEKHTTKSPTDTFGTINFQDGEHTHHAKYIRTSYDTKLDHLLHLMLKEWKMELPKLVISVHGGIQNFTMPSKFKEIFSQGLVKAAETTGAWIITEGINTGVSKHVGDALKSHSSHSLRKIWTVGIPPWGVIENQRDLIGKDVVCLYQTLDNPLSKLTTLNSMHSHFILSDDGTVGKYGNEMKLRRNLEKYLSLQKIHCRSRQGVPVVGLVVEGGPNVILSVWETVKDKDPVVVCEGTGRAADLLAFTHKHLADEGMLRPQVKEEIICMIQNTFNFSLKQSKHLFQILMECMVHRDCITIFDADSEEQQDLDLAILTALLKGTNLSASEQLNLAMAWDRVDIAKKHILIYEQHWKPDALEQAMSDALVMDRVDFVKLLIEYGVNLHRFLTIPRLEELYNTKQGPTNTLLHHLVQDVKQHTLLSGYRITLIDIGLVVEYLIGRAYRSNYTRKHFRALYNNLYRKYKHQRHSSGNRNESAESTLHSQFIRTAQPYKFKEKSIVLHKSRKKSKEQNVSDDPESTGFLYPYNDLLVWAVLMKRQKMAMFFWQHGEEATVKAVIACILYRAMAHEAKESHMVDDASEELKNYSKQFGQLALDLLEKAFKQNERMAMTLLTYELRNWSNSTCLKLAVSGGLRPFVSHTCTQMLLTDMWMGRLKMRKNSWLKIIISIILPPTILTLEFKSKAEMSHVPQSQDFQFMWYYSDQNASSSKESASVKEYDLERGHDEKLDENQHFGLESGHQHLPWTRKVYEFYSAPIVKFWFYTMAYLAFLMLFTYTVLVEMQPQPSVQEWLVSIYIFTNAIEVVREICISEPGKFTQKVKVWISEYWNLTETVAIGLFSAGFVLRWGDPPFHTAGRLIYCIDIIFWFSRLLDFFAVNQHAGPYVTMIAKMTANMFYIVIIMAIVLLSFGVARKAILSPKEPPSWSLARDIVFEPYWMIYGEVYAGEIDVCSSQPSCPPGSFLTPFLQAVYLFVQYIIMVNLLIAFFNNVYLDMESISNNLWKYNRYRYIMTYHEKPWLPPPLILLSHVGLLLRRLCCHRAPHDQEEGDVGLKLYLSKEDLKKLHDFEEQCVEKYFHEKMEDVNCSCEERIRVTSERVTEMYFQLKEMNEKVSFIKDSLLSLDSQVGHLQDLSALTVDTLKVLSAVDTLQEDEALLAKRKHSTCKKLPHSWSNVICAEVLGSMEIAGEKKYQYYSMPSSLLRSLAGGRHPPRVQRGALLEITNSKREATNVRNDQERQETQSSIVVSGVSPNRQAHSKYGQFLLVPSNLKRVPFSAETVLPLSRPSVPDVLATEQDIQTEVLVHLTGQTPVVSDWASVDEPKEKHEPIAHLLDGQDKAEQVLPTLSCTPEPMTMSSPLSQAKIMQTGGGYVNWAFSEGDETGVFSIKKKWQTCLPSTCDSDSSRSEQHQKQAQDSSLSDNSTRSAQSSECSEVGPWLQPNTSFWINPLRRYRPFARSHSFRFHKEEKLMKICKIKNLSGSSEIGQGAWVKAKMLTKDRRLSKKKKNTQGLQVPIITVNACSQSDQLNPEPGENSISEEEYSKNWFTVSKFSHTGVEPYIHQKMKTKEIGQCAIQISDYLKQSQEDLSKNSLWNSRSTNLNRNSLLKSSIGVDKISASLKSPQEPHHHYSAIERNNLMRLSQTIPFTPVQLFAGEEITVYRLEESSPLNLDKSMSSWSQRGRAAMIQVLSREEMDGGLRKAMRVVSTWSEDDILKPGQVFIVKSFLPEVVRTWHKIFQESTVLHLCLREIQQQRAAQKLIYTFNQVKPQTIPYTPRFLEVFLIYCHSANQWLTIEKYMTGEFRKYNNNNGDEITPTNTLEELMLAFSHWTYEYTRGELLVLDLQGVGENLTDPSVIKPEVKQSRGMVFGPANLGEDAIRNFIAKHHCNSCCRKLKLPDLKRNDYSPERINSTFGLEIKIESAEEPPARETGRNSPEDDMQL

`c1ccc2c(c1)Sc1ccccc1N2CCN1CCOCC1` [J54]: the remaining binding stood at 100% at MST4; 95% in test [1]; 98% on LYN; 97% on FGFR3; 93% at SGK; 100% at FGR. Further, the remaining binding at PAK1 was 93%; on MAP4K3, 100%; at TRPM6, 100%; at JNK2 it was 84%; at RET(M918T), 97%; on IKK-beta it was 100%. Also, the remaining binding on PDGFRA, on LIMK2, at TESK1, at LIMK1, on DDR1 and on CAMK2D was 100% throughout. Moreover, at FLT3(N841I), the remaining binding was 99%.
